Assay results from patent publication US10993923B2, “Method for ameliorating fibrosis using 1-[4-chloro-3-(trifluoromethyl)phenyl]-3-[3-(4-cyanophenoxy)phenyl]urea” (priority 2016, dated 2021).

Key:
[1] = tested on: mouse fibroblasts (NIH3T3 cell line); experiment: Apoptosis analysis, NIH3T3 fibroblasts; type: cell-based
Method: (§1) Murine NIH3T3 fibroblasts and human lung epithelial cells (A549 cells) were purchased from the Bioresource Collection and Research Center (Hsinchu, Taiwan). Cells were cultured in Dulbecco's modified eagle medium (DMEM) containing 10% fetal bovine serum (FBS), 100 μg/mL penicillin, 100 μg/mL streptomycin. Cells were cultured at 37° C. in a humidified atmosphere of 5% CO2 and passaged every 4 to 5 days at 1:4 ratios.
The measurement of apoptotic cells was conducted by flow cytometry (sub-G1) and cell death detection enzyme-bound immunosorbent assay (ELISA) for cytoplasmic histone associated DNA fragments. The amount of formazan dye was quantified by measuring the absorbance at 570 nm using ELISA reader to calculate the optical density (OD) values. Statistical analysis was determined using Student's t-test, with P<0.05 considered significant.
STAT3 cDNA (KIAA1524) was purchased from Addgene Platinum Corporation. After the transient transfection of STAT3, SHP-1, SHP-1(dN1) mutants and SHP-1(61A) mutant in mouse fibroblasts (NIH3T3 cell line) and human lung epithelial cells (A549 cell line), cells were reacted separately with the 1-[4-chloro-3-(trifluoromethyl)phenyl]-3-[3-(4-cyanophenoxy)phenyl]urea compound and subjected to the Western blotting process. Transfection was performed by X-tremeGENE HP Transfection Reagent (Roche, Germany) following the manufacturer's instructions. […]

[2] = tested on: BDL-induced cholestasis fibrosis in mice; experiment: Bile duct ligation (BDL) fibrosis mice prevention model; type: in vivo, Balb/C mice; conditions: 10 mg/kg from day 1 until sacrifice on day 14 of BDL; FIG. 13A, 13B
Excerpt: In the bile duct ligation (BDL) mouse model, the common bile duct of Balb/C mice was double-ligated and excised. Mice were fed daily with vehicle or 1-[4-chloro-3-(trifluoromethyl)phenyl]-3-[3-(4-cyanophenoxy)phenyl]urea on day 1 or day 8 until they were sacrificed on day 14.
(§2) The mice liver samples were stored in 10% formaldehyde, dehydrated with gradient alcohol, embedded in paraffin blocks, sectioned to a thickness of 3 μm, placed on glass slides, and stained with Picrosirius Red Stain kit (ScyTek, USA), following the manufacturer's instructions. The severity of liver fibrosis was graded according to the Ishak fibrosis score. Quantitative collagen-positive area (qCPA) was determined by densitometry via ImageJ software. Hepatic hydroxyproline concentrations were measured by the hydroxyproline assay kit (Biovision, USA), following the manufacturer's instructions Immunohistochemistry was performed by the Leica BOND-MAX automatic chromatograph (Leica Biosystems, Germany), following the manufacturer's instructions.

[3] = tested on: hepatic stellate cells (HSC); experiment: Western blot in hepatic stellate cells (cell line not given); type: cell-based
Method: (§3) Rat immortal hepatic stellate cell line HSC-T6 and LX2 human hepatic stellate cell line were provided by Professor Scott Friedman of Mount Sinai Hospital in New York, USA. The primary mouse HSCs were obtained via the way: after intubating the hepatic portal vein of the mouse, the cells were perfused with Leffert's and ethylene glycol bis-aminoethyl ether tetraacetic acid (EGTA) buffer in situ, and then collagenase was injected to digest the liver tissue, and then the primary mouse HSCs were isolated by Histodnz gradient. HSC-T6 cells were cultured in Waymouth medium; LX2 cells and primary mouse HSCs were cultured in Dulbecco's Modified Eagle Medium (DMEM) containing 10% fetal bovine serum (FBS), 100 μg/mL penicillin, 100 μg/mL streptomycin, and 2 mM L-glutamine HSC-T6 cells, LX2 cells and primary mouse HSCs were cultured in a humidified incubator containing 5% carbon dioxide at 37° C. After adding the FBS, the resting HSC is started. For in vitro studies, various concentrations of 1-[4-chloro-3-(trifluoromethyl)phenyl]-3-[3-(4-cyanophenoxy)phenyl]urea and sorafenib were dissolved in dimethyl sulfoxide and subsequently added to cells, which were in 5% FBS, for a predetermined period of time.
Whole-cell extracts were obtained via RIPA buffer (Millipore, USA) and protein concentrations were quantified via a BCA protein assay kit (Thermo Fisher Scientific, USA). 20 or 25 μg of protein was added to various percentages of SDS-sodium dodecyl sulfate-acrylamide gel and blotted onto a polyvinylidene fluoride (PVDF) membrane. The membrane was then reacted with a primary antibody; after extensive washing, the membrane was reacted with a […] containing a second antibody. Proteins were detected by Immobilon Western Chemiluminescent HRP substrate (Millipore, USA) or ECL detection system (UVP Corporation, USA). […]

[4] = tested on: p-STAT3 in mouse fibroblasts (NIH3T3 cell line); experiment: Western blot of p-STAT3 in NIH3T3 fibroblasts; type: cell-based; conditions: FIG. 7B
Method: as §1
(§4) Whole-cell extracts were obtained via RIPA buffer (Millipore, USA) and protein concentrations were quantified via a BCA protein assay kit (Thermo Fisher Scientific, USA). 20 or 25 μg of protein was added to various percentages of SDS-sodium dodecyl sulfate-acrylamide gel and blotted onto a polyvinylidene fluoride (PVDF) membrane. The membrane was then reacted with a primary antibody; after extensive washing, the membrane was reacted with a […] containing a second antibody. Proteins were detected by Immobilon Western Chemiluminescent HRP substrate (Millipore, USA) or ECL detection system (UVP Corporation, USA).
Antibodies for immunoblotting techniques such as anti-E-cadherin, anti-Fibronectin, anti-N-cadherin were purchased from Abcam (UK). […]

[5] = tested on: CCl4-induced hepatic fibrosis in mice; experiment: CCl4-induced hepatic fibrosis mice regression model; type: in vivo, male C57BL/6J mice; conditions: 10 mg/kg for 4 weeks without CCl4 after 8 weeks CCl4 induction
Excerpt: In male C57BL/6J mice, liver fibrosis was induced by carbon tetrachloride (CCl4). The mice were given peritoneal injection of carbon tetrachloride for 4 or 8 weeks every two weeks.
as §2

[6] = tested on: PDGFR and STAT3 pathways in HSC-T6 cells; experiment: Western blot of signalling proteins in HSC-T6 cells; type: cell-based, rat
Method: as §3, with “For in vitro studies, various concentrations of 1-[4-chloro-3-(trifluoromethyl)phenyl]-3-[3-(4-cyanophenoxy)phenyl]urea and sorafenib were dissolved in dimethyl sulfoxide and subsequently added to cells, which were in 5% FBS, for a predetermined period of time.” left out
Whole-cell extracts were obtained via RIPA buffer (Millipore, USA) and protein concentrations were quantified via a BCA protein assay kit (Thermo Fisher Scientific, USA). […] Proteins were detected by Immobilon Western Chemiluminescent HRP substrate (Millipore, USA) or ECL detection system (UVP Corporation, USA). […]

[7] = tested on: human lung epithelial cells (A549 cell line); experiment: TGF-β1-induced epithelial mesenchymal transition (EMT) in A549 cells; type: cell-based
Method: as §1, §4
Antibodies for immunoblotting techniques such as anti-E-cadherin, anti-Fibronectin, anti-N-cadherin were purchased from Abcam (UK). Other antibodies such as anti-SHP-1, anti-phosphorylated STAT3(Tyr705), anti-STAT3α-smooth muscle actin (α-SMA) and anti-caspase-9 were purchased from Cell Signaling Corporation ([…], United States).
Smart-pool siRNA, including control (sc-37007) siRNA, siRNA anti-SHP-1, and STAT3, were purchased from Santa Cruz Biotechnology (California, USA).

SHP-1 = target: T1, SHP-1 (Rattus norvegicus, UniProt P81718); experiment: SHP-1 phosphatase activity, HSC-T6 cells; type: cell-based; conditions: sorafenib 5 μM, compound 2.5 or 5 μM, FIG. 16C
T1 construct: endogenous in cells; host or cells: HSC-T6 cells
T1 sequence (P81718 whole entry): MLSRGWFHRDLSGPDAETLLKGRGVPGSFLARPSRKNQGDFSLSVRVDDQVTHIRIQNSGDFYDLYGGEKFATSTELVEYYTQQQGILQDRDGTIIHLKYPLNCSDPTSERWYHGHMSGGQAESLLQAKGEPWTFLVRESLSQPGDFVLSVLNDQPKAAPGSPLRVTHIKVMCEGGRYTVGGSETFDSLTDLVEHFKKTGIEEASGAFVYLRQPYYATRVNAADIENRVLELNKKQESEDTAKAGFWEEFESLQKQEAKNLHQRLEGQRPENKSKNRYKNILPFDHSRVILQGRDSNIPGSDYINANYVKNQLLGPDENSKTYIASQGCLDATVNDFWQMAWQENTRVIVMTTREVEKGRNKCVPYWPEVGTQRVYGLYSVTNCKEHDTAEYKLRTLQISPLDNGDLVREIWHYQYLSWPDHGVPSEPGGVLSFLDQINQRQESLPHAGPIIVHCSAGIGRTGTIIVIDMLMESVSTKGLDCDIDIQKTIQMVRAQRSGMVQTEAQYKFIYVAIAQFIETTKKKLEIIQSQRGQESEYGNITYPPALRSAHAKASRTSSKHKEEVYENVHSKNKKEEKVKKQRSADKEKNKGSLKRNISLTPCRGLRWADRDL

N#Cc1ccc(Oc2cccc(NC(=O)Nc3ccc(Cl)c(C(F)(F)F)c3)c2)cc1 [1-[4-chloro-3-(trifluoromethyl)phenyl]-3-[3-(4-cyanophenoxy)phenyl]urea]
compound-induced apoptosis after SHP-1 knockout ([1]; NIH3T3, SHP-1 siRNA, FIG. 7D): offset by SHP-1 knockout | apoptosis of fibrotic cells ([1]; NIH3T3, FIG. 7C): induced apoptosis | quantitative collagen-positive area (qCPA) [2]: significantly reduced | IL-6-induced p-STAT3 upregulation ([3]; 10 μM for 4 hours, then IL-6 100 ng/mL 30 minutes, FIG. 15B): suppressed | cleavage of poly(ADP-ribose) polymerase (PARP) fragments ([3]; Western blotting, FIG. 14C): dose-dependently increased | p-Akt and p-STAT3 after administering AG1295, a specific PDGFR inhibitor ([3]; independent of the PDGFR signaling, FIG. 15D): still downregulated | expression level of p-STAT3 [4]: reduced | qCPA (quantitative collagen-positive area) ([5]; FIG. 12G): significantly decreased | Ishak fibrosis score ([5]; FIG. 12H): significantly decreased | p-PDGFR and p-Akt in the PDGFR pathway ([6]; 10 μM for 4 hours, then PDGF-BB 100 ng/mL 10 minutes, FIG. 14E): downregulated | downregulation of p-STAT3 and cyclin D1, compared with sorafenib ([6]; FIG. 15A): more significant dose-escalation effects on the downregulation | effects of the compound (p-STAT3, EMT marker, migration and invasion) after SHP-1 knock out with siRNA ([7]; A549, FIG. 9B): offset the effects | effects of the compound (EMT marker, migration and invasion) after STAT3 knock out ([7]; A549, FIG. 9C): offset the effects | TGF-β1-induced EMT (EMT marker profile) ([7]; A549 exposed to TGF-β1, FIG. 8B): reversed TGF-β1-induced EMT in a dose-dependent manner | migration and invasion of cells ([7]; A549 exposed to TGF-β1, FIGS. 8C and 8D): reduced | SHP-1 activity (SHP-1): significantly increased the SHP-1 activity at a lower concentration
